Test results as given in BindingDB's records for doi:10.1016/j.bmcl.2011.07.125 (Pfizer, 2011).

Assay: Antagonist activity at H4R in human eosinophils assessed as inhibition of histamine-induced shape change by GAFS assay

IC50: 0.65 nM
SMILES: CN[C@@H]1CCN(c2cc(NCC3CC3)nc(N)n2)C1
